In patent US9120812B2, “Pyrimidooxazocine derivatives as mTOR-inhibitors” (SANOFI, priority 2012, dated 2015):
Like-named read-outs stand apart in the source and are kept apart here.

How the values were obtained:
U87MG tumour cells = experiment: Test of in vitro proliferation of U87MG tumour cells; format: cell-based; settings: Homo sapiens, U-87 MG, 72 h
Experimental: Model 4: Test of in vitro Proliferation of U87MG Tumour Cells.
The cell growth is determined with the reagent CellTiter 96 AQueous One Solution Cell Proliferation Assay from Promega (Cat. No. G3581).

Akt-pS473 in U87MG cells = settings: Homo sapiens, U-87 MG; for inhibition at 3 µM: read-out: U87 Akt-pS473 % Inhibition
[1] = target: mTOR (human recombinant aa mTOR 1360-2549) (Homo sapiens (Human), UniProt P42345); experiment: mTOR enzymatic test by TR-FRET (phosphorylation of GFP-4EBP1); format: biochemical
In short: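 TR-FRET detection of GFP-4EBP1 phosphorylation by a terbium-labelled anti-phospho-Thr46 antibody. Kinase reaction ran 30 min at room temperature, was quenched with EDTA (10 mM final) plus Tb-antibody (2 nM final) and left 60 min. Emission at 520 and 490 nm after 340 nm excitation, reported as the 520/490 ratio.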

PI3Kα (p110α/p85α) = PI3Kα (p110α/p85α) (Homo sapiens (Human), UniProt P42336); experiment: PI3Kα enzymatic test by measuring the consumption of ATP; format: biochemical
In short: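 p110α/p85α (1.7 μg/ml) with 50 μM PIP2 and 2 μM ATP in pH 7.5 Tris buffer with EGTA, MgCl2, Chaps, DTT; reaction 90 min. Remaining ATP measured by luciferin/luciferase luminescence; IC50 from threefold serial dilutions spanning at least 10 000-fold.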

[2] = U87MG cells, 72 hours, read-out: U87 Cell Proliferation IC50
[3] = read-out: U87 Akt-pS473 % Inhibition or IC50, nM (IC50), U87MG cells

Sequence of mTOR (human recombinant aa mTOR 1360-2549) (P42345 1360-2549): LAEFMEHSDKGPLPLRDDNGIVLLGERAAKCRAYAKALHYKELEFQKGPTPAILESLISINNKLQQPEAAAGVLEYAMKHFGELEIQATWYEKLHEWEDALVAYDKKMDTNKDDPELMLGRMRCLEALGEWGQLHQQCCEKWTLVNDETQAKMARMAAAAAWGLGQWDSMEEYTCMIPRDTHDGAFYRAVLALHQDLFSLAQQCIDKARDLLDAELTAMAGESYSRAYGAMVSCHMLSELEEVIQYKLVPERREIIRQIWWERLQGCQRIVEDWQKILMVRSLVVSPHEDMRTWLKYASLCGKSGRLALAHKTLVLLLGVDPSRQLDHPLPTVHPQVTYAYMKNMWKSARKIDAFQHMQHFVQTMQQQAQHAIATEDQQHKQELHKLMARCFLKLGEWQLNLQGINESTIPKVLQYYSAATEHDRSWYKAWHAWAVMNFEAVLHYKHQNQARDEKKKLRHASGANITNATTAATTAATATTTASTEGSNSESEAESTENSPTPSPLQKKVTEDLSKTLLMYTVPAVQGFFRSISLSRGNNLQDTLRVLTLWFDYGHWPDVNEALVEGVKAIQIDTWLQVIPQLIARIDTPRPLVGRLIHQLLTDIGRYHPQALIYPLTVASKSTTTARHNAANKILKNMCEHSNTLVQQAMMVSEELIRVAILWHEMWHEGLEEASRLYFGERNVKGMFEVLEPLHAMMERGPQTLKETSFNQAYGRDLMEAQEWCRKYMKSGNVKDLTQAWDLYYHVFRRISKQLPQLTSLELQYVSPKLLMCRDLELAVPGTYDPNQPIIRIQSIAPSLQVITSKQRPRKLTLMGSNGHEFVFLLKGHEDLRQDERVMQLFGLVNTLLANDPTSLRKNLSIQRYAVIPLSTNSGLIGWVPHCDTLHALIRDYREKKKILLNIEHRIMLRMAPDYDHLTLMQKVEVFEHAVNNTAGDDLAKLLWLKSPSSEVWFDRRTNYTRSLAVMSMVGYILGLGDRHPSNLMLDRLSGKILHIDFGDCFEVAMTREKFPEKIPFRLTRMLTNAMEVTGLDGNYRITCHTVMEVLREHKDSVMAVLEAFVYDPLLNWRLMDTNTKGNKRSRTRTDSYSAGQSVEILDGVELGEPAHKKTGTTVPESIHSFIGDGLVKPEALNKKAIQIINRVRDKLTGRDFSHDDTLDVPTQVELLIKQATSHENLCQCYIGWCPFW
Sequence of PI3Kα (p110α/p85α) (P42336 whole entry): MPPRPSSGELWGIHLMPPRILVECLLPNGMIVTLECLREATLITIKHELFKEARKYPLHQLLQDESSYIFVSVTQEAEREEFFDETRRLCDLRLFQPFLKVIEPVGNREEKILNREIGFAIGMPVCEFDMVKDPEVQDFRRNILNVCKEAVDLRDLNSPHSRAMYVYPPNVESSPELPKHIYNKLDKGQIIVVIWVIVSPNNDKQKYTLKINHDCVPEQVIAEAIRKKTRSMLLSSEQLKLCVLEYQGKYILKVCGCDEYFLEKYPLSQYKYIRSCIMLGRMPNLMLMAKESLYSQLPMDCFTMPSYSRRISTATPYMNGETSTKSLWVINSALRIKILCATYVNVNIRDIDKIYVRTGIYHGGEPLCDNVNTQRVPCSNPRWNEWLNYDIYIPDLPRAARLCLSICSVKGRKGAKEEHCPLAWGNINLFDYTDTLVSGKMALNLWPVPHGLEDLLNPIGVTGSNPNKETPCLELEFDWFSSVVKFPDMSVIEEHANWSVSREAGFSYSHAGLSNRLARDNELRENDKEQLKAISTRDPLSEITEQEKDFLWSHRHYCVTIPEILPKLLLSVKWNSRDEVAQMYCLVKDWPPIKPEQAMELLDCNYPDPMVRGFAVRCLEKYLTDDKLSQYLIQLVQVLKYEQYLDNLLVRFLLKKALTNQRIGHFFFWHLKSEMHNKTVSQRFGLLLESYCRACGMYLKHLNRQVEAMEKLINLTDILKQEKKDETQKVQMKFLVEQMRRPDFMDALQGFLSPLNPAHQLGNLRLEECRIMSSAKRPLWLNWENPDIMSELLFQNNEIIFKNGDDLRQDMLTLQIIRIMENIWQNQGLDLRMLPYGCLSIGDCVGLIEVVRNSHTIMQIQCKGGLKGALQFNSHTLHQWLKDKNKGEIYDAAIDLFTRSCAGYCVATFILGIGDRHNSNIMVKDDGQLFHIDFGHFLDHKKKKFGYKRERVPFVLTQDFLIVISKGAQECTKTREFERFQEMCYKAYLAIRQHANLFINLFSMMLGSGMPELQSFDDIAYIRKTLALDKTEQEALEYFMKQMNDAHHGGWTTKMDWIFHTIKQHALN
Sequence of PI3Kα (p110α/p85α) (P27986 whole entry partner): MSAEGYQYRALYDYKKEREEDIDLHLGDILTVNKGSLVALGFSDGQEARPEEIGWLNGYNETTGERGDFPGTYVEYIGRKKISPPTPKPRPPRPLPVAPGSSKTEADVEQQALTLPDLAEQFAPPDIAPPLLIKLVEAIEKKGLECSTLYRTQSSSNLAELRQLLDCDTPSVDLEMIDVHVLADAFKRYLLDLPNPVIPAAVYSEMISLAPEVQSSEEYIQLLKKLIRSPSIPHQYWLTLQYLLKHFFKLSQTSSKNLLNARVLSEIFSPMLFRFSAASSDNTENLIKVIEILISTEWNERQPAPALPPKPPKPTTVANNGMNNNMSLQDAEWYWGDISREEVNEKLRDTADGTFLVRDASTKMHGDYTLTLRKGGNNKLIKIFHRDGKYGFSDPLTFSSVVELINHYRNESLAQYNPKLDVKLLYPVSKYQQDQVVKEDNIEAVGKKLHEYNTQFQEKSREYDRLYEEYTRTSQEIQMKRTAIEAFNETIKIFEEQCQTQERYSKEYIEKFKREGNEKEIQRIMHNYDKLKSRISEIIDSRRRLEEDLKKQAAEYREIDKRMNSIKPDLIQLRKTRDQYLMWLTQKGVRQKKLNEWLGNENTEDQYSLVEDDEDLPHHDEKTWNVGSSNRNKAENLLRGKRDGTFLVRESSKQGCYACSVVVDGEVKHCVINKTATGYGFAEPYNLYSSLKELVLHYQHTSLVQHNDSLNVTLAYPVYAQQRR

Compound | IC50 (U87MG tumour cells; [2]) [nM] | IC50 (Akt-pS473 in U87MG cells; [3]) [nM] | IC50 [1] [nM] | PI3Ka IC50 (PI3Kα (p110α/p85α)) [nM] | inhibition at 3 µM (Akt-pS473 in U87MG cells) [%] | IC50 (U87MG tumour cells; read-out: U87 Cell Proliferation IC50, nM) [nM] | IC50 (Akt-pS473 in U87MG cells; read-out: U87 Akt-pS473 % Inhibition or IC50, nM (IC50)) [nM]
CCN1CC(C)(C)Oc2nc(N3CCOC[C@@H]3C)nc(-c3ccc(NC(=O)Nc4cc(OC)ccn4)cc3)c2C1=O [Example 184, 1-{4-[6-Ethyl-8,8-dimethyl-2-((S)-3-methylmorpholin-4-yl)-5-oxo-5,6,7,8-tetrahydro-9-oxa-1,3,6-triazabenzocyclohepten-4-yl]phenyl}-3-(4-methoxypyridin-2-yl)urea] | 368 | 65 | 12 | 12978 | – | – | –
CCN1CC(C)(C)Oc2nc(N3CC4CCC(C3)O4)nc(-c3ccc(NC(=O)Nc4ccc(C)nc4)c(F)c3)c2C1=O [Example 185, 1-{4-[6-Ethyl-8,8-dimethyl-2-(8-oxa-3-azabicyclo[3.2.1]oct-3-yl)-5-oxo-5,6,7,8-tetrahydro-9-oxa-1,3,6-triazabenzocyclohepten-4-yl]-2-fluorophenyl}-3-(6-methylpyridin-3-yl)urea] | 73 | 20 | 24 | 5680 | – | – | –
CCN1CC(C)(C)Oc2nc(N3CCOC[C@@H]3C)nc(-c3ccc(NC(=O)OCCO)cc3)c2C1=O [Example 186, {4-[6-Ethyl-8,8-dimethyl-2-((S)-3-methylmorpholin-4-yl)-5-oxo-5,6,7,8-tetrahydro-9-oxa-1,3,6-triazabenzocyclohepten-4-yl]phenyl}carbamic acid 2-hydroxyethyl ester] | 266 | 60 | 25 | 3940 | – | – | –
CCN1CC(C)(C)Oc2nc(N3CCOC[C@@H]3C)nc(-c3ccc(NC(=O)Nc4ccc(N5CCOCC5)nc4)c(F)c3)c2C1=O [Example 187, 1-{4-[6-Ethyl-8,8-dimethyl-2-((S)-3-methylmorpholin-4-yl)-5-oxo-5,6,7,8-tetrahydro-9-oxa-1,3,6-triazabenzocyclohepten-4-yl]-2-fluorophenyl}-3-(6-morpholin-4-ylpyridin-3-yl)urea] | 67 | 22 | 37 | 472 | – | – | –
COCCN1CC(C)(C)Oc2nc(N3CCOC[C@@H]3C)nc(-c3ccc(NC(=O)Nc4ccc(F)cc4F)cc3)c2C1=O [Example 188, 1-(2,4-Difluorophenyl)-3-{4-[6-(2-methoxyethyl)-8,8-dimethyl-2-((S)-3-methylmorpholin-4-yl)-5-oxo-5,6,7,8-tetrahydro-9-oxa-1,3,6-triazabenzocyclohepten-4-yl]phenyl}urea] | 505 | 45 | 63 | 2330 | – | – | –
COc1ccc(NC(=O)Nc2ccc(-c3nc(N4CCOC[C@@H]4C)nc4c3C(=O)N(C3CCOCC3)CC(C)(C)O4)cc2F)cn1 [Example 189, 1-{4-[8,8-Dimethyl-2-((S)-3-methylmorpholin-4-yl)-5-oxo-6-(tetrahydropyran-4-yl)-5,6,7,8-tetrahydro-9-oxa-1,3,6-triazabenzocyclohepten-4-yl]-2-fluorophenyl}-3-(6-methoxypyridin-3-yl)urea] | 451 | 56 | 62 | 1890 | – | – | –
CCN1CC(C)(C)Oc2nc(N3CC4CCC(C3)O4)nc(-c3ccc(NC(=O)Nc4ccc(C(=O)NCC(C)(C)O)cc4)cc3)c2C1=O [Example 190, 4-(3-{4-[6-Ethyl-8,8-dimethyl-2-(8-oxa-3-azabicyclo[3.2.1]oct-3-yl)-5-oxo-5,6,7,8-tetrahydro-9-oxa-1,3,6-triazabenzocyclohepten-4-yl]phenyl}ureido)-N-(2-hydroxy-2-methylpropyl)benzamide] | 734 | – | 40 | 927 | 69 | – | –
CCN1CC(C)(C)Oc2nc(N3CCOC[C@@H]3C)nc(-c3ccc(NC(=O)Nc4ccc(F)cc4F)cc3)c2C1=O [Example 191, 1-(2,4-Difluorophenyl)-3-{4-[6-ethyl-8,8-dimethyl-2-((S)-3-methylmorpholin-4-yl)-5-oxo-5,6,7,8-tetrahydro-9-oxa-1,3,6-triazabenzocyclohepten-4-yl]phenyl}urea] | 105 | 26 | 24 | 570 | – | – | –
CCN1CC(C)(C)Oc2nc(N3CCOC[C@@H]3C)nc(-c3ccc(NC(=O)Nc4ccccn4)c(F)c3)c2C1=O [Example 192, 1-{4-[6-Ethyl-8,8-dimethyl-2-((S)-3-methylmorpholin-4-yl)-5-oxo-5,6,7,8-tetrahydro-9-oxa-1,3,6-triazabenzocyclohepten-4-yl]-2-fluorophenyl}-3-pyridin-2-ylurea] | 1770 | – | 29 | 1310 | 82 | – | –
CCN1CC(C)(C)Oc2nc(N3CCOC[C@@H]3C)nc(-c3ccc(NC(=O)Oc4cccc(OC)c4)cc3)c2C1=O [Example 193, {4-[6-Ethyl-8,8-dimethyl-2-((S)-3-methylmorpholin-4-yl)-5-oxo-5,6,7,8-tetrahydro-9-oxa-1,3,6-triazabenzocyclohepten-4-yl]phenyl}carbamic acid 3-methoxyphenyl ester] | – | – | 970 | 9440 | – | 4660 | > 1000
CCN1CC(C)(C)Oc2nc(N3CC4CCC(C3)O4)nc(-c3ccc(NC(=O)Nc4cn(C)cn4)c(F)c3)c2C1=O [Example 194, 1-{4-[6-Ethyl-8,8-dimethyl-2-(8-oxa-3-azabicyclo[3.2.1]oct-3-yl)-5-oxo-5,6,7,8-tetrahydro-9-oxa-1,3,6-triazabenzocyclohepten-4-yl]-2-fluorophenyl}-3-(1-methyl-1H-imidazol-4-yl)urea] | 2130 | – | 27 | 1230 | 62 | – | –
CCN1CC(C)(C)Oc2nc(N3CC4CCC(C3)O4)nc(-c3ccc(NC(=O)Nc4ccc(N5CCN(C)CC5)nc4)c(F)c3)c2C1=O [Example 195, 1-{4-[6-Ethyl-8,8-dimethyl-2-(8-oxa-3-azabicyclo[3.2.1]oct-3-yl)-5-oxo-5,6,7,8-tetrahydro-9-oxa-1,3,6-triazabenzocyclohepten-4-yl]-2-fluorophenyl}-3-[6-(4-methylpiperazin-1-yl)pyridin-3-yl]urea] | 57 | 45 | 61 | 6800 | – | – | –
CCN1CC(C)(C)Oc2nc(N3CCOC[C@@H]3C)nc(-c3ccc(NC(=O)Nc4ccc(OC)nc4)c(C)c3)c2C1=O [Example 196, 1-{4-[6-Ethyl-8,8-dimethyl-2-((S)-3-methylmorpholin-4-yl)-5-oxo-5,6,7,8-tetrahydro-9-oxa-1,3,6-triazabenzocyclohepten-4-yl]-2-methylphenyl}-3-(6-methoxypyridin-3-yl)urea] | 5050 | – | 276 | 7470 | 60 | – | –
COCCN1CC(C)(C)Oc2nc(N3CC4CCC(C3)O4)nc(-c3ccc(NC(=O)Nc4ccc(OC)nc4)cc3)c2C1=O [Example 197, 1-{4-[6-(2-Methoxyethyl)-8,8-dimethyl-2-(8-oxa-3-azabicyclo[3.2.1]oct-3-yl)-5-oxo-5,6,7,8-tetrahydro-9-oxa-1,3,6-triazabenzocyclohepten-4-yl]phenyl}-3-(6-methoxypyridin-3-yl)urea] | 523 | 150 | 117 | >10000 | – | – | –
